Source: the supplement of paper PMC9386025

Test system: JHOS2
Test: drug sensitivity score (DSS) (DSS (dimensionless)); higher = more sensitive (stronger drug response)
Conditions: genetic perturbation: DOX-induced PTK7 shRNA knockdown
Summary of the method: (§1)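 Drugs were pre-plated in 384-well plates at five concentrations covering a 10,000-fold range, and 1 000 – 1 500 cells per well were added from patient-derived cultures or from ovarian cancer cell lines whose shRNA had been induced with 100 ng/ml doxycycline for three days or longer. Incubation lasted three days at 37 °C under 5.0 % CO2. A PHERAstar FS then recorded CellTiter-Glo luminescence as the readout of viability. A drug sensitivity score, calculated as described before, summarised the dose-response curve of every drug.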

Compound	drug sensitivity score
CC[C@H](CC#N)OC(=O)N[C@@H](C)c1cccc(NC(=O)Nc2ccc(-c3cnco3)c(OC)c2)c1 [AVN944]	5.8
Cc1[nH]nc(C(F)(F)F)c1Cc1sc2c(c1C(=O)N1C[C@](C)(O)CO1)c(=O)n(C)c(=O)n2C(C)C [AZD3965]	< 0
NC(=O)Nc1cc(-c2cccc(F)c2)sc1C(=O)N[C@H]1CCCNC1 [AZD7762]	7.6
COc1ccc(-c2ccc3c(N4CCOC[C@@H]4C)nc(N4CCOC[C@@H]4C)nc3n2)cc1CO [AZD8055]	11.8
Cc1ncc(-c2ccnc(Nc3ccc(S(C)(=O)=O)cc3)n2)n1C(C)C [AZD-5438]	14.4
CN(C)Cc1c(C(=O)NCCOc2ccc(C(=O)NO)cc2)oc2ccccc12 [Abexinostat]	14.4
CN(C)C/C=C/C(=O)Nc1cc2c(Nc3ccc(F)c(Cl)c3)ncnc2cc1O[C@H]1CCOC1 [Afatinib]	< 0
COc1cccc2c1C(=O)c1c(O)c3c(c(O)c1C2=O)C[C@@](O)(/C(CO)=N/NC(=O)CCCCCN1C(=O)C=CC1=O)C[C@@H]3O[C@H]1C[C@H](N)[C@H](O)[C@H](C)O1 [Aldoxorubicin]	7.9
COc1cc(Nc2ncc3c(n2)-c2ccc(Cl)cc2C(c2c(F)cccc2OC)=NC3)ccc1C(=O)O [Alisertib]	1.9
CN1CC[C@H](c2c(O)cc(O)c3c(=O)cc(-c4ccccc4Cl)oc23)[C@H](O)C1 [Alvocidib]	14.4
CCN(CC)CCNC(=O)c1c(C)[nH]c(/C=C2\C(=O)Nc3ccc(-c4csc(-c5ccccc5)n4)cc32)c1C [Amcasertib]	8.4
COc1cc(NS(C)(=O)=O)ccc1Nc1c2ccccc2nc2ccccc12 [Amsacrine]	3.3
O=C1CN2Cc3c(ccc(Cl)c3Cl)N=C2N1 [Anagrelide]	< 0
CC(=O)OC[C@H]1O[C@@H]([S-])[C@H](OC(C)=O)[C@@H](OC(C)=O)[C@@H]1OC(C)=O.CCP(CC)CC.[Au+] [Auranofin]	2.5
Nc1ncn([C@@H]2O[C@H](CO)[C@@H](O)[C@H]2O)c(=O)n1 [Azacitidine]	2.2

Same assay, conditions: genetic perturbation: DOX-induced control shRNA

Compound	drug sensitivity score
CC[C@H](CC#N)OC(=O)N[C@@H](C)c1cccc(NC(=O)Nc2ccc(-c3cnco3)c(OC)c2)c1 [AVN944]	9.6
Cc1[nH]nc(C(F)(F)F)c1Cc1sc2c(c1C(=O)N1C[C@](C)(O)CO1)c(=O)n(C)c(=O)n2C(C)C [AZD3965]	< 0
NC(=O)Nc1cc(-c2cccc(F)c2)sc1C(=O)N[C@H]1CCCNC1 [AZD7762]	4.6
COc1ccc(-c2ccc3c(N4CCOC[C@@H]4C)nc(N4CCOC[C@@H]4C)nc3n2)cc1CO [AZD8055]	17
Cc1ncc(-c2ccnc(Nc3ccc(S(C)(=O)=O)cc3)n2)n1C(C)C [AZD-5438]	8.3
CN(C)Cc1c(C(=O)NCCOc2ccc(C(=O)NO)cc2)oc2ccccc12 [Abexinostat]	13.3
CN(C)C/C=C/C(=O)Nc1cc2c(Nc3ccc(F)c(Cl)c3)ncnc2cc1O[C@H]1CCOC1 [Afatinib]	1.8
COc1cccc2c1C(=O)c1c(O)c3c(c(O)c1C2=O)C[C@@](O)(/C(CO)=N/NC(=O)CCCCCN1C(=O)C=CC1=O)C[C@@H]3O[C@H]1C[C@H](N)[C@H](O)[C@H](C)O1 [Aldoxorubicin]	7.4
COc1cc(Nc2ncc3c(n2)-c2ccc(Cl)cc2C(c2c(F)cccc2OC)=NC3)ccc1C(=O)O [Alisertib]	0.9
CN1CC[C@H](c2c(O)cc(O)c3c(=O)cc(-c4ccccc4Cl)oc23)[C@H](O)C1 [Alvocidib]	14.5
CCN(CC)CCNC(=O)c1c(C)[nH]c(/C=C2\C(=O)Nc3ccc(-c4csc(-c5ccccc5)n4)cc32)c1C [Amcasertib]	< 0
COc1cc(NS(C)(=O)=O)ccc1Nc1c2ccccc2nc2ccccc12 [Amsacrine]	4.4
O=C1CN2Cc3c(ccc(Cl)c3Cl)N=C2N1 [Anagrelide]	3.5
CC(=O)OC[C@H]1O[C@@H]([S-])[C@H](OC(C)=O)[C@@H](OC(C)=O)[C@@H]1OC(C)=O.CCP(CC)CC.[Au+] [Auranofin]	0.7
Nc1ncn([C@@H]2O[C@H](CO)[C@@H](O)[C@H]2O)c(=O)n1 [Azacitidine]	3.2

Test system: Kuramochi
Test: as above
Conditions: genetic perturbation: DOX-induced PTK7 shRNA knockdown
Summary of the method: as §1

Compound	drug sensitivity score
CC[C@H](CC#N)OC(=O)N[C@@H](C)c1cccc(NC(=O)Nc2ccc(-c3cnco3)c(OC)c2)c1 [AVN944]	9.7
Cc1[nH]nc(C(F)(F)F)c1Cc1sc2c(c1C(=O)N1C[C@](C)(O)CO1)c(=O)n(C)c(=O)n2C(C)C [AZD3965]	0.7
NC(=O)Nc1cc(-c2cccc(F)c2)sc1C(=O)N[C@H]1CCCNC1 [AZD7762]	6
COc1ccc(-c2ccc3c(N4CCOC[C@@H]4C)nc(N4CCOC[C@@H]4C)nc3n2)cc1CO [AZD8055]	15.9
Cc1ncc(-c2ccnc(Nc3ccc(S(C)(=O)=O)cc3)n2)n1C(C)C [AZD-5438]	7.55
CN(C)Cc1c(C(=O)NCCOc2ccc(C(=O)NO)cc2)oc2ccccc12 [Abexinostat]	18.5
CN(C)C/C=C/C(=O)Nc1cc2c(Nc3ccc(F)c(Cl)c3)ncnc2cc1O[C@H]1CCOC1 [Afatinib]	1.7
COc1cccc2c1C(=O)c1c(O)c3c(c(O)c1C2=O)C[C@@](O)(/C(CO)=N/NC(=O)CCCCCN1C(=O)C=CC1=O)C[C@@H]3O[C@H]1C[C@H](N)[C@H](O)[C@H](C)O1 [Aldoxorubicin]	5.45
COc1cc(Nc2ncc3c(n2)-c2ccc(Cl)cc2C(c2c(F)cccc2OC)=NC3)ccc1C(=O)O [Alisertib]	6.25
CN1CC[C@H](c2c(O)cc(O)c3c(=O)cc(-c4ccccc4Cl)oc23)[C@H](O)C1 [Alvocidib]	16.6
CCN(CC)CCNC(=O)c1c(C)[nH]c(/C=C2\C(=O)Nc3ccc(-c4csc(-c5ccccc5)n4)cc32)c1C [Amcasertib]	4.6
COc1cc(NS(C)(=O)=O)ccc1Nc1c2ccccc2nc2ccccc12 [Amsacrine]	1.25
O=C1CN2Cc3c(ccc(Cl)c3Cl)N=C2N1 [Anagrelide]	< 0
CC(=O)OC[C@H]1O[C@@H]([S-])[C@H](OC(C)=O)[C@@H](OC(C)=O)[C@@H]1OC(C)=O.CCP(CC)CC.[Au+] [Auranofin]	6.75
Nc1ncn([C@@H]2O[C@H](CO)[C@@H](O)[C@H]2O)c(=O)n1 [Azacitidine]	1.05
